Test results published in US20220362122A1, “Hair Treatment Compositions With Amine Derivatives” (ELC Management LLC, priority 2021, published 2022).
“Also recorded” adds a separate entry of the source. Where two headings read alike, the source gives them in different places. Marks after values point to notes of the source that are not given here.

Key:
[1] = for Lifting level normalized to NH3•H2O / Relative lifting level in percentage (LVirgin-LAlkalizer)/(LVirgin-LNaOH) / ΔL (change in color lifting) LVirgin-LAlkalizer: single alkalizer compositions, Table 5; for lifting of natural hair color, comparison in words: single alkalizer/oxidizer mixtures; for L Value: single alkalizer composition + volume 40 oxidizer developer on hair tresses, 37° C., 45 minutes, virgin 19
[2] = pH of alkalizer composition
[3] = alkalizer composition
[4] = alkalizer composition; 22° C., T-F spindle, 6 rpm
keratinocytes = assay: MultiTox-Fluor Multiplex Cytotoxicity Assay, keratinocytes; format: cell-based; details: for toxicity to the cell, comparison in words: keratinocytes; for IC50: Keratinocyte, greater IC50 = less stress on the cells, unit inferred
Procedure: (§1) The effects of alkalizer compositions on outer root sheath cells and on keratinocytes was evaluated. The MultiTox-Fluor Multiplex Cytotoxicity Assay (Promega Corp., Madison, Wis.) simultaneously measures two protease activities: one is a marker of cell viability, and the other is a marker of cytotoxicity. In the assays, the responses of outer root sheath cells and keratinocytes to various concentrations of alkalizers were measured, and IC50, the concentration that provokes a mid-height response (midway between the baseline response and maximal response), was determined.

outer root sheath cells = assay: MultiTox-Fluor Multiplex Cytotoxicity Assay, outer root sheath cells; format: cell-based; details: for IC50: greater IC50 = less stress on the cells, unit inferred; for toxicity to the cell, comparison in words: outer root sheath cells
Procedure: as §1

[5] = Table 12 AEPD-Tris series, mole ratio AEPD/Tris, virgin hair 20.4
[6] = alkalizer composition: Table 2 base + alkalizer, same molar percentage
[7] = Table 13 Serinol-Tris series, mole ratio Serinol/Tris, virgin hair 20.4

| Compound | ΔT (change in denaturation temperature) TVirgin-TAlkalizer (keratin in hair) | pH [2] | Alkalinity [3] | Viscosity (cP × 10^5) [4] | pH [2, 6] | Lifting level normalized to NH3•H2O [1] | Relative lifting level in percentage (LVirgin-LAlkalizer)/(LVirgin-LNaOH) [1] | ΔL (change in color lifting) LVirgin-LAlkalizer [1] | lifting of natural hair color, comparison in words [1] | % Relative damage level compared to NaOH (TVirgin-TAlkalizer)/(TVirgin-TNaOH) (keratin in hair) | Damage level normalized to NH3•H2O (keratin in hair) | L Value [1] | hair damage / denaturation temperature, comparison in words (keratin in hair) | toxicity to the cell, comparison in words (keratinocytes) | IC50 (outer root sheath cells) | toxicity to the cell, comparison in words (outer root sheath cells) | other results |
| --- | --- | --- | --- | --- | --- | --- | --- | --- | --- | --- | --- | --- | --- | --- | --- | --- | --- |
| 3-Amino-1-propanol [AP] | 12 | 11.49 | 3.10 mL/g | 3.26 cP × 10^5 |  | 1.20 | 102.27% | −18 | better at lifting natural hair color than the ammonium hydroxide/oxidizer mixture; also recorded: outperformed all of them | 83.97% | 4.30 |  |  |  |  |  | Denaturation Temperature (° C.) (keratin in hair): 138.42 °C |
| CCC(N)(CO)CO [AEPD, 2-Amino-2-ethyl-1,3-propanediol] | 4.17 |  | 2.40 mL/g | 4.47 cP × 10^5 | 10.33 | 0.73 | 62.50% | −11 | not quite as good as secondary amine alkalizer, DEA, but close | 29.18% | 1.49 | 30 | performed significantly better than MEA and AMP | significantly less toxic than ammonium hydroxide | 87 mM | significantly less toxic than ammonium hydroxide | L* value ([1]; Table 7 AEPD-NH3 series, mole ratio AEPD/NH3, virgin hair 20.2): 30; L* value [1, 5]: 30.4; denaturation temperature in binary combinations, in words (keratin in hair): lowered the denaturation temperature, but only slightly |
| CC(C)(N)CO [AMP, aminomethyl propanol, reference compound] | 8.59 |  | 2.32 mL/g | 1.81 cP × 10^5 | 10.91 | 0.90 | 76.70% | −13.5 |  | 60.11% | 3.08 | 32.5 |  | more toxic to the cell than ammonium hydroxide |  | more toxic to the cell than ammonium hydroxide |  |
| CC(N)(CO)CO [AMPD, 2-Amino-2-methyl-1,3-propanediol] | 4.54 | 10.28 | 2.49 mL/g | 3.84 cP × 10^5 |  | 0.87 |  | −13 | almost as good as MEA and ammonium hydroxide |  | 1.63 |  |  | significantly less toxic than ammonium hydroxide |  | significantly less toxic than ammonium hydroxide |  |
| OCCNCCO [DEA, Diethanolamine] | 1.79 | 10.35 | 2.57 mL/g | 5.09 cP × 10^5 |  | 0.77 |  | −11.5 |  |  | 0.64 |  | less damaging to hair than the ammonium hydroxide composition |  |  |  |  |
| CN(C)C(C)(C)CO [DMAMP, 2-Dimethyl-amino-2-methyl-1-propanol] | 2.58 |  | 2.38 mL/g | 0.211 cP × 10^5 | 11.15 | 0.47 | 39.77% | −7 |  | 18.05% | 0.92 | 26 | less damaging to hair than the ammonium hydroxide composition | more toxic than ammonium hydroxide, but less toxic than conventional replacement AMP; also recorded: less toxic to keratinocytes than MEA; also recorded: more toxic to the cell than ammonium hydroxide | 18 mM | more toxic than ammonium hydroxide, but less toxic than conventional replacement AMP; also recorded: more toxic to the cell than ammonium hydroxide | L* value ([1]; Table 8A DMAMP-NH3 series, mole ratio DMAMP/NH3, virgin hair 20.3): 26; L* value ([1]; Table 8B DMAMP-NH3 in low DMAMP percentages, mole ratio DMAMP/NH3, virgin hair 20.3): 24.9; denaturation temperature in binary combinations, in words (keratin in hair): raised the denaturation temperature; IC50 (keratinocytes): 33 mM |
| Ammonium hydroxide [reference compound] | 2.79 | 10.72 |  |  |  |  |  |  |  |  | 1 |  |  |  |  |  |  |

Now from value to compound, other results behind:

| ΔT (change in denaturation temperature) TVirgin-TAlkalizer (keratin in hair) | pH [2] | Alkalinity [3] | Viscosity (cP × 10^5) [4] | pH [2, 6] | Compound | Lifting level normalized to NH3•H2O [1] | Relative lifting level in percentage (LVirgin-LAlkalizer)/(LVirgin-LNaOH) [1] | ΔL (change in color lifting) LVirgin-LAlkalizer [1] | lifting of natural hair color, comparison in words [1] | % Relative damage level compared to NaOH (TVirgin-TAlkalizer)/(TVirgin-TNaOH) (keratin in hair) | Damage level normalized to NH3•H2O (keratin in hair) | L Value [1] | hair damage / denaturation temperature, comparison in words (keratin in hair) | toxicity to the cell, comparison in words (keratinocytes) | IC50 (outer root sheath cells) | toxicity to the cell, comparison in words (outer root sheath cells) | other results |
| --- | --- | --- | --- | --- | --- | --- | --- | --- | --- | --- | --- | --- | --- | --- | --- | --- | --- |
| 0.96 |  | 2.57 mL/g | 3.23 cP × 10^5 | 10.37 | CN(C)CC(O)CO (stereo not drawn) [DMAPD, 3-(dimethylamino)-1,2-propanediol] | 0.43 | 36.93% | −6.5 |  | 6.72% | 0.34 | 25.5 | less damaging to hair than the ammonium hydroxide composition | significantly less toxic than ammonium hydroxide |  | significantly less toxic than ammonium hydroxide |  |
| 5.83 |  | 2.45 mL/g | 3.75 cP × 10^5 | 10.56 | NCC(O)CO (stereo not drawn) [Isoserinol, 3-Amino-1,2-propanediol] | 1.13 | 96.59% | −17 | significantly better than AMP and about the same as MEA, at lifting hair color; also recorded: better at lifting natural hair color than the ammonium hydroxide/oxidizer mixture; also recorded: about the same effectiveness as MEA, and significantly better effectiveness than AMP | 40.80% | 2.09 | 36 | performed significantly better than MEA and AMP | significantly less toxic than ammonium hydroxide | 56.3 mM | significantly less toxic than ammonium hydroxide | IC50 (keratinocytes): 97 mM |
| 8.46 |  | 2.35 mL/g | 3.02 cP × 10^5 | 10.85 | NCCO [MEA, monoethanolamine, reference compound] |  |  | −17 |  |  | 3.03 | 36 |  | more toxic to the cell than ammonium hydroxide | 21.4 mM | more toxic to the cell than ammonium hydroxide | IC50 (keratinocytes): 23 mM |
| 14.29 |  |  |  |  | [Na+].[OH-] [NaOH, reference compound] | 1.17 | 100% | −17.6 |  | 100% | 5.12 | 36.6* |  |  |  |  |  |
| 3.19 |  | 2.55 mL/g | 10.1 cP × 10^5 | 10.22 | NC(CO)CO [Serinol, 2-Amino-1,3-propanediol] | 0.80 | 68.18% | −12 | performed significantly less well than ammonium hydroxide | 22.32% | 1.14 | 31 |  |  |  |  | L* value ([1]; Table 10 Serinol-NH3 series, mole ratio Serinol/NH3, virgin hair 19.9): 31.2; L* value [1, 7]: 31.2; denaturation temperature in binary combinations, in words (keratin in hair): lowered the denaturation temperature, but only slightly |
| 1.42 |  | 2.43 mL/g | 4.17 cP × 10^5 | 9.6 | NC(CO)(CO)CO [Tris, Tromethamine] | 0.53 |  | −8 | as good as tertiary alkalizer DMAP |  | 0.51 | 27 | also performed well |  |  |  | L* value ([1]; Table 9 Tris-NH3 series, mole ratio Tris/NH3, virgin hair 20.0): 28; L* value ([1]; Table 11 AMPD-Tris series, mole ratio AMPD/Tris, virgin hair 20.3): 28; L* value [1, 5]: 28.5; L* value [1, 7]: 28.5; L* value / color lifting in binary combinations, in words ([1]; binary combinations of alkalizers): tends to reduce the effectiveness of color lifting |
